Test results from US9738634B2, “Heterocyclic amide compound and herbicide” (SYNGENTA PARTICIPATIONS AG, priority 2013, dated 2017).

Legend:
Assay type in all cases: in vivo
[1] = tested on: fig-leafed goosefoot; experiment: Test Example 4: weedkilling efficacy by foliar treatment; M: fig-leafed goosefoot; conditions: treatment dosage 315 g/ha
Outline: (§1)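 Seeds are spot-sown into sterilized diluvial soil and covered with about 1.5 cm of soil. After 14 days' greenhouse growth at 25 to 30° C, plants are sprayed on stems and leaves with diluted emulsion at the stated g/ha rate, then scored at 3 weeks.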

[2] = tested on: Indian mallow; experiment: Test Example 3: weedkilling efficacy through soil treatment; K: Indian mallow; conditions: treatment dosage 315 g/ha
Outline: (§2)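 Crop and weed responses were judged three weeks after a uniform surface spray of the water-diluted emulsion at the given g/ha rate. Seeds sat beneath about 1.5 cm of sterilized diluvial soil, and boxes stood in a greenhouse at 25 to 30° C.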

[3] = tested on: fig-leafed goosefoot; experiment: Test Example 3: weedkilling efficacy through soil treatment; M: fig-leafed goosefoot; conditions: treatment dosage 315 g/ha
Outline: as §2

[4] = tested on: birds-eye speedwell; experiment: Test Example 4: weedkilling efficacy by foliar treatment; p: birds-eye speedwell; conditions: treatment dosage 315 g/ha
Outline: as §1

[5] = tested on: green foxtail; experiment: Test Example 4: weedkilling efficacy by foliar treatment; E: green foxtail; conditions: treatment dosage 315 g/ha
Outline: as §1

[6] = tested on: bulrush; experiment: Test Example 1: weedkilling efficacy, preemergent weed treatment in the submerged state; B: bulrush; conditions: treatment dosage 252 g/ha
Outline: (§3)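 Visual scores against set criteria were taken 3 weeks after treatment. Compounds, as diluted emulsions at specified g/ha, went onto the water surface of 4 cm-flooded alluvial soil pots on the day weeds were sown and 2.5-leaf rice was transplanted; greenhouse held 25–30 °C.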

[7] = tested on: wheat; experiment: Test Example 3: soil treatment, effect on crop; e: wheat; conditions: treatment dosage 315 g/ha
Outline: as §2

[8] = tested on: directly sown rice; experiment: Test Example 3: soil treatment, effect on crop; b: directly sown rice; conditions: treatment dosage 315 g/ha
Outline: as §2

[9] = tested on: directly sown rice; experiment: Test Example 4: foliar treatment, effect on crop; b: directly sown rice; conditions: treatment dosage 315 g/ha
Outline: as §1

[10] = tested on: Italian ryegrass; experiment: Test Example 4: weedkilling efficacy by foliar treatment; I: Italian ryegrass; conditions: treatment dosage 315 g/ha
Outline: as §1

[11] = tested on: wheat; experiment: Test Example 4: foliar treatment, effect on crop; e: wheat; conditions: treatment dosage 315 g/ha
Outline: as §1

[12] = tested on: Indian mallow; experiment: Test Example 4: weedkilling efficacy by foliar treatment; K: Indian mallow; conditions: treatment dosage 315 g/ha
Outline: as §1

[13] = tested on: transplanted rice; experiment: Test Example 1: preemergent weed treatment in the submerged state, effect on crop; a: transplanted rice; conditions: treatment dosage 252 g/ha
Outline: as §3

[14] = tested on: soybean; experiment: Test Example 3: soil treatment, effect on crop; d: soybean; conditions: treatment dosage 315 g/ha
Outline: as §2

[15] = tested on: soybean; experiment: Test Example 4: foliar treatment, effect on crop; d: soybean; conditions: treatment dosage 315 g/ha
Outline: as §1

[16] = tested on: beet; experiment: Test Example 3: soil treatment, effect on crop; f: beet; conditions: treatment dosage 315 g/ha
Outline: as §2

[17] = tested on: bulrush; experiment: Test Example 2: weedkilling efficacy, growth period weed treatment in the submerged state; B: bulrush; conditions: treatment dosage 252 g/ha
Outline: (§4)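 Barnyard grass, bulrush and oval-leafed pondweed sown in alluvial soil under 4 cm flooding, greenhouse 25 to 30° C. At 1-2 leaf stage, water-diluted emulsion applied to the water surface at stated g/ha dosages; effects scored 3 weeks later.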

[18] = tested on: crabgrass; experiment: Test Example 4: weedkilling efficacy by foliar treatment; D: crabgrass; conditions: treatment dosage 315 g/ha
Outline: as §1

[19] = tested on: black-grass; experiment: Test Example 4: weedkilling efficacy by foliar treatment; H: black-grass; conditions: treatment dosage 315 g/ha
Outline: as §1

[20] = tested on: green foxtail; experiment: Test Example 3: weedkilling efficacy through soil treatment; E: green foxtail; conditions: treatment dosage 315 g/ha
Outline: as §2

[21] = tested on: birds-eye speedwell; experiment: Test Example 3: weedkilling efficacy through soil treatment; p: birds-eye speedwell; conditions: treatment dosage 315 g/ha
Outline: as §2

[22] = tested on: catchweed; experiment: Test Example 4: weedkilling efficacy by foliar treatment; O: catchweed; conditions: treatment dosage 315 g/ha
Outline: as §1

[23] = tested on: corn; experiment: Test Example 3: soil treatment, effect on crop; c: corn; conditions: treatment dosage 315 g/ha
Outline: as §2

[24] = tested on: oval-leafed pondweed; experiment: Test Example 2: weedkilling efficacy, growth period weed treatment in the submerged state; C: oval-leafed pondweed; conditions: treatment dosage 252 g/ha
Outline: as §4

[25] = tested on: redroot pigweed; experiment: Test Example 3: weedkilling efficacy through soil treatment; L: redroot pigweed; conditions: treatment dosage 315 g/ha
Outline: as §2

[26] = tested on: black-grass; experiment: Test Example 3: weedkilling efficacy through soil treatment; H: black-grass; conditions: treatment dosage 315 g/ha
Outline: as §2

[27] = tested on: oval-leafed pondweed; experiment: Test Example 1: weedkilling efficacy, preemergent weed treatment in the submerged state; C: oval-leafed pondweed; conditions: treatment dosage 252 g/ha
Outline: as §3

[28] = tested on: corn; experiment: Test Example 4: foliar treatment, effect on crop; c: corn; conditions: treatment dosage 315 g/ha
Outline: as §1

[29] = tested on: crabgrass; experiment: Test Example 3: weedkilling efficacy through soil treatment; D: crabgrass; conditions: treatment dosage 315 g/ha
Outline: as §2

[30] = tested on: barnyard grass; experiment: Test Example 2: weedkilling efficacy, growth period weed treatment in the submerged state; A: barnyard grass; conditions: treatment dosage 252 g/ha
Outline: as §4

[31] = tested on: redroot pigweed; experiment: Test Example 4: weedkilling efficacy by foliar treatment; L: redroot pigweed; conditions: treatment dosage 315 g/ha
Outline: as §1

[32] = tested on: chickweed; experiment: Test Example 4: weedkilling efficacy by foliar treatment; N: chickweed; conditions: treatment dosage 315 g/ha
Outline: as §1

[33] = tested on: chickweed; experiment: Test Example 3: weedkilling efficacy through soil treatment; N: chickweed; conditions: treatment dosage 315 g/ha
Outline: as §2

[34] = tested on: barnyard grass; experiment: Test Example 1: weedkilling efficacy, preemergent weed treatment in the submerged state; A: barnyard grass; conditions: treatment dosage 252 g/ha
Outline: as §3

[35] = tested on: catchweed; experiment: Test Example 3: weedkilling efficacy through soil treatment; O: catchweed; conditions: treatment dosage 315 g/ha
Outline: as §2

[36] = tested on: Italian ryegrass; experiment: Test Example 3: weedkilling efficacy through soil treatment; I: Italian ryegrass; conditions: treatment dosage 315 g/ha
Outline: as §2

[37] = tested on: beet; experiment: Test Example 4: foliar treatment, effect on crop; f: beet; conditions: treatment dosage 315 g/ha
Outline: as §1

| SMILES | M (fig-leafed goosefoot) weedkilling efficacy grade [1] | K (Indian mallow) weedkilling efficacy grade [2] | M (fig-leafed goosefoot) weedkilling efficacy grade [3] | P (birds-eye speedwell) weedkilling efficacy grade [4] | E (green foxtail) weedkilling efficacy grade [5] | B (bulrush) weedkilling efficacy grade [6] | e (wheat) effect on crop grade [7] | b (directly sown rice) effect on crop grade [8] | b (directly sown rice) effect on crop grade [9] | I (Italian ryegrass) weedkilling efficacy grade [10] | e (wheat) effect on crop grade [11] | K (Indian mallow) weedkilling efficacy grade [12] | a (transplanted rice) effect on crop grade [13] | d (soybean) effect on crop grade [14] | d (soybean) effect on crop grade [15] | f (beet) effect on crop grade [16] | B (bulrush) weedkilling efficacy grade [17] | D (crabgrass) weedkilling efficacy grade [18] | H (black-grass) weedkilling efficacy grade [19] | E (green foxtail) weedkilling efficacy grade [20] | other results |
| --- | --- | --- | --- | --- | --- | --- | --- | --- | --- | --- | --- | --- | --- | --- | --- | --- | --- | --- | --- | --- | --- |
| CCc1nsc(NC(=O)C(C)(C)N2COC(C)=C(c3ccccc3)C2=O)n1 [B-1-14] | 4 (weed kill ratio 70% or more, less than 90%) | 3 (weed kill ratio 40% or more, less than 70%) | 5 (weed kill ratio 90% or more, (practically complete withering)) | 4 (weed kill ratio 70% or more, less than 90%) | 5 (weed kill ratio 90% or more, (practically complete withering)) | 5 (weed kill ratio 90% or more, (practically complete withering)) | 5 (weed kill ratio 90% or more, (practically complete withering)) | 5 (weed kill ratio 90% or more, (practically complete withering)) | 4 (weed kill ratio 70% or more, less than 90%) | 5 (weed kill ratio 90% or more, (practically complete withering)) | 4 (weed kill ratio 70% or more, less than 90%) | 5 (weed kill ratio 90% or more, (practically complete withering)) | 1 (weed kill ratio 5% or more, less than 20%) | 3 (weed kill ratio 40% or more, less than 70%) | 4 (weed kill ratio 70% or more, less than 90%) | 5 (weed kill ratio 90% or more, (practically complete withering)) | 5 (weed kill ratio 90% or more, (practically complete withering)) | 5 (weed kill ratio 90% or more, (practically complete withering)) | 5 (weed kill ratio 90% or more, (practically complete withering)) | 5 (weed kill ratio 90% or more, (practically complete withering)) | P (birds-eye speedwell) weedkilling efficacy grade [21]: 5 (weed kill ratio 90% or more, (practically complete withering)); O (catchweed) weedkilling efficacy grade [22]: 4 (weed kill ratio 70% or more, less than 90%); c (corn) effect on crop grade [23]: 0 (weed kill ratio 5% or less (practically no effect)); C (oval-leafed pondweed) weedkilling efficacy grade [24]: 5 (weed kill ratio 90% or more, (practically complete withering)); L (redroot pigweed) weedkilling efficacy grade [25]: 5 (weed kill ratio 90% or more, (practically complete withering)); H (black-grass) weedkilling efficacy grade [26]: 5 (weed kill ratio 90% or more, (practically complete withering)); C (oval-leafed pondweed) weedkilling efficacy grade [27]: 5 (weed kill ratio 90% or more, (practically complete withering)); c (corn) effect on crop grade [28]: 3 (weed kill ratio 40% or more, less than 70%); D (crabgrass) weedkilling efficacy grade [29]: 5 (weed kill ratio 90% or more, (practically complete withering)); A (barnyard grass) weedkilling efficacy grade [30]: 5 (weed kill ratio 90% or more, (practically complete withering)); L (redroot pigweed) weedkilling efficacy grade [31]: 5 (weed kill ratio 90% or more, (practically complete withering)); N (chickweed) weedkilling efficacy grade [32]: 4 (weed kill ratio 70% or more, less than 90%); N (chickweed) weedkilling efficacy grade [33]: 4 (weed kill ratio 70% or more, less than 90%); A (barnyard grass) weedkilling efficacy grade [34]: 5 (weed kill ratio 90% or more, (practically complete withering)); O (catchweed) weedkilling efficacy grade [35]: 5 (weed kill ratio 90% or more, (practically complete withering)); I (Italian ryegrass) weedkilling efficacy grade [36]: 5 (weed kill ratio 90% or more, (practically complete withering)); f (beet) effect on crop grade [37]: 5 (weed kill ratio 90% or more, (practically complete withering)) |
| CSc1nsc(NC(=O)C(C)(C)N2COC(C)=C(c3ccccc3)C2=O)n1 [B-1-16] | 3 (weed kill ratio 40% or more, less than 70%) | 0 (weed kill ratio 5% or less (practically no effect)) | 4 (weed kill ratio 70% or more, less than 90%) | 0 (weed kill ratio 5% or less (practically no effect)) | 5 (weed kill ratio 90% or more, (practically complete withering)) | 5 (weed kill ratio 90% or more, (practically complete withering)) | 5 (weed kill ratio 90% or more, (practically complete withering)) | 3 (weed kill ratio 40% or more, less than 70%) | 4 (weed kill ratio 70% or more, less than 90%) | 3 (weed kill ratio 40% or more, less than 70%) | 1 (weed kill ratio 5% or more, less than 20%) | 5 (weed kill ratio 90% or more, (practically complete withering)) | 2 (weed kill ratio 20% or more, less than 40%) | 0 (weed kill ratio 5% or less (practically no effect)) | 3 (weed kill ratio 40% or more, less than 70%) | 0 (weed kill ratio 5% or less (practically no effect)) | 5 (weed kill ratio 90% or more, (practically complete withering)) | 5 (weed kill ratio 90% or more, (practically complete withering)) | 5 (weed kill ratio 90% or more, (practically complete withering)) | 5 (weed kill ratio 90% or more, (practically complete withering)) | P (birds-eye speedwell) weedkilling efficacy grade [21]: 4 (weed kill ratio 70% or more, less than 90%); O (catchweed) weedkilling efficacy grade [22]: 4 (weed kill ratio 70% or more, less than 90%); c (corn) effect on crop grade [23]: 0 (weed kill ratio 5% or less (practically no effect)); C (oval-leafed pondweed) weedkilling efficacy grade [24]: 5 (weed kill ratio 90% or more, (practically complete withering)); L (redroot pigweed) weedkilling efficacy grade [25]: 4 (weed kill ratio 70% or more, less than 90%); H (black-grass) weedkilling efficacy grade [26]: 5 (weed kill ratio 90% or more, (practically complete withering)); C (oval-leafed pondweed) weedkilling efficacy grade [27]: 5 (weed kill ratio 90% or more, (practically complete withering)); c (corn) effect on crop grade [28]: 2 (weed kill ratio 20% or more, less than 40%); D (crabgrass) weedkilling efficacy grade [29]: 5 (weed kill ratio 90% or more, (practically complete withering)); A (barnyard grass) weedkilling efficacy grade [30]: 5 (weed kill ratio 90% or more, (practically complete withering)); L (redroot pigweed) weedkilling efficacy grade [31]: 4 (weed kill ratio 70% or more, less than 90%); N (chickweed) weedkilling efficacy grade [32]: 0 (weed kill ratio 5% or less (practically no effect)); N (chickweed) weedkilling efficacy grade [33]: 3 (weed kill ratio 40% or more, less than 70%); A (barnyard grass) weedkilling efficacy grade [34]: 5 (weed kill ratio 90% or more, (practically complete withering)); O (catchweed) weedkilling efficacy grade [35]: 5 (weed kill ratio 90% or more, (practically complete withering)); I (Italian ryegrass) weedkilling efficacy grade [36]: 4 (weed kill ratio 70% or more, less than 90%); f (beet) effect on crop grade [37]: 1 (weed kill ratio 5% or more, less than 20%) |
